We go through one compound from patent publication US20050277696A1, “Novel use of cytotoxic drugs for treatment and prophylasxis of aging diseases by reversing the loss of elasticity of epithelial cells due to aging” (priority 2004, published 2005).

The data set has as its system human epithelial cells. In words: clonal growth of human epithelial cells in cell culture over 7 days (surviving colonies counted). It counts as cell-based. An excerpt:
Therefore, before the comparison of results based on rigidity of older cells against younger and more elastic cells, the proper concentration of the drug must be found. Dissolved in an appropriate solvent (for example, dimethylsulfoxide for Cytochalasin D, B and Latrunculin A, B, Jasplakinolide), the drug should be added to the cell culture medium. […] The amount of the drug should not be in such a high concentration that would result in the destruction of the cells. As an example, when the treatment of the old cells is done with Cytochalasin B, a cell permeable fungal toxin which binds to the barbed end of actin filaments and results in the inhibition of both the association and dissociation of its subunits, a 4 μg/mL solution of Cytochalasin B in the medium was optimal to treat viable cells for 12 hours. This concentration was determined by performing experiments to measure clonal growth of human epithelial cells in cell culture over 7 days in different concentrations of the drug. The number of surviving colonies of cells was counted to determine the range of concentrations that were non-toxic or non-cytostatic. This range was from 1.0 to 10 μg/mL. The determination of the appropriate concentration of a cytotoxic drug is dependent upon the particular drug of choice, but one skilled in the art would recognize methods to determine the appropriate drug concentration.

Regarding `C=C1[C@@H](C)[C@H]2[C@H](Cc3ccccc3)NC(=O)[C@]23OC(=O)/C=C/[C@H](O)CCC[C@@H](C)C/C=C/[C@H]3[C@@H]1O` [Cytochalasin B], under “clonal growth over 7 days in different concentrations of the drug, number of surviving colonies counted”, the “range of concentrations that were non-toxic or non-cytostatic” value was in the range of 1.0 to 10 µg/mL. Further, for the setting “old cells, treatment for 12 hours, solution in the medium”, the “optimal concentration in the medium to treat viable cells” value was 4 µg/mL.
